Experimental data taken from patent US8207218B2, “DMAE as sole agent for the treatment of mild cognitive impairment” (Pierre Fabre Medicament, priority 2006, dated 2012).

Assays:
[1] = tested on: healthy individuals with memory loss induced by injection of scopolamine; experiment: Attention (Digit Symbol Substitution Test), alertness and mood (EVA by Bond and Lader), reaction times, after scopolamine; assay type: in vivo; conditions: 24 healthy individuals, repeated oral doses
Procedure: (§1) Under the present invention, the activity of DMAE and its salts and esters, and the hydrates and solvates, was assessed in a population in whom this memory disorder was induced by injection of scopolamine, to reproduce the profile of the target population.
(§2) The medications given were in forms suitable to be taken via oral route, corresponding to dosage units allowing daily doses in the order of 100 mg to 3 g, advantageously 300 mg to 3 g of active ingredient in adults, particularly in the order of 1500 mg per day. The tested medications led to plasma levels corresponding to a Cmax peak of around 1.5 μg/ml of DMAE and/or around 24 ng/ml of pGlu (pyroglutamic acid).
(§3) The Applicant conducted the following tests: • Memory test: Buschke Selective Reminding Test, • Attention test: Digit Symbol Substitution Test (90″) • Assessment of alertness and mood: EVA by Bond and Lader, • Sensory-motor performance tests: reaction times (total, decisional and motor)

[2] = tested on: healthy individuals with memory loss induced by injection of scopolamine; experiment: Buschke Selective Reminding Test, memory loss induced by injection of scopolamine (cross-over study); assay type: in vivo; conditions: 24 healthy individuals, repeated oral doses
Procedure: as §1, §2, §3
The main results observed are given in the graphs of the appended FIGS. 1 to 4 in which: • LTS designates the number of words acquired in long-term storage, • LTR designates the number of words retrieved from long-term memory in each test i.e. the words belonging to LTS and which are recalled for the test in progress, and • CLTR designates the number of words which are consistently acquired i.e. which are recalled during subsequent tests.

Row | SMILES | impact on the other cognitive components tested such as alertness, attention [1] | effect on memory performance levels [2]
1 | CN(C)CCO [DMAE, dimethylaminoethanol] | without any impact | specific effect on memory performance levels
2 | CN(C)CCO.O=C1CC[C@@H](C(=O)O)N1 [DMAE pyroglutamate] | without any impact | specific effect on memory performance levels
